Measurements reported in US20230002359A1, “PESTICIDALLY ACTIVE FUSED BICYCLIC HETEROAROMATIC COMPOUNDS” (priority 2019, published 2023).

Tests used:
Format in all cases: in vivo
[1] = test system: Myzus persicae (Green Peach Aphid); assay: Example B5: Myzus persicae (green peach aphid) feeding/contact activity, sunflower leaf discs; settings: foliar, 144 h, application rate of 200 ppm, 6 days after infestation
Description: Sunflower leaf discs were placed onto agar in a 24-well microtiter plate and sprayed with aqueous test solutions prepared from 10′000 ppm DMSO stock solutions. After drying, the leaf discs were infested with an aphid population of mixed ages. The samples were assessed for mortality 6 days after infestation.

[2] = test system: Plutella xylostella (Diamond Back Moth); assay: Example B4: Plutella xylostella (diamond back moth), artificial diet, eggs, 24-well; settings: 192 h, application rate of 200 ppm, 8 days after infestation, eggs, read-out: control in at least one of the two categories (mortality or growth inhibition)
Description: 24-well microtiter plates with artificial diet were treated with aqueous test solutions prepared from 10′000 ppm DMSO stock solutions by pipetting. After drying, Plutella eggs were pipetted through a plastic stencil onto a gel blotting paper and the plate was closed with it. The samples were assessed for mortality and growth inhibition in comparison to untreated samples 8 days after infestation.

[3] = test system: Euschistus heros (Neotropical Brown Stink Bug); assay: Example B2: Euschistus heros (neotropical brown stink bug), soybean leaves sprayed, N2 nymphs; settings: 120 h, application rate of 200 ppm, 5 days after infestation, N2 nymphs, read-out: control in at least one of the two categories (mortality or growth inhibition)
Description: Soybean leaves on agar in 24-well microtiter plates were sprayed with aqueous test solutions prepared from 10′000 ppm DMSO stock solutions. After drying the leaves were infested with N2 nymphs. The samples were assessed for mortality and growth inhibition in comparison to untreated samples 5 days after infestation.

[4] = test system: Diabrotica Balteata (Corn Root Worm); assay: Example B1: Diabrotica balteata (corn root worm), maize sprouts sprayed, L2 larvae; settings: 96 h, application rate of 200 ppm, 4 days after infestation, L2 larvae, read-out: control in at least one of the two categories (mortality or growth inhibition)
Summary of the method: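 Spray test: maize sprouts on agar, aqueous dilutions of 10′000 ppm DMSO stock; after drying, 6–10 L2 larvae/well. Read-out at 4 d post-infestation: mortality and growth inhibition vs untreated.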

[5] = test system: Myzus persicae (Green Peach Aphid); assay: Example B6: Myzus persicae (green peach aphid) intrinsic activity, sucrose solution; settings: 120 h, test rate of 12 ppm, 5 days after infestation, intrinsic activity, read-out: mortality
Summary of the method: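 Mortality was read 5 days after infestation. Aphids on pea seedlings fed through a stretched Parafilm membrane on inverted 24-well plates containing sucrose solution mixed with test compound, which was diluted from 10′000 ppm DMSO stock.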

[6] = test system: Spodoptera littoralis (Egyptian Cotton Leaf Worm); assay: Example B7: Spodoptera littoralis (Egyptian cotton leaf worm), cotton leaf discs sprayed, L1 larvae; settings: foliar, 72 h, application rate of 200 ppm, 3 days after infestation, L1 larvae, read-out: control in at least one of the three categories (mortality, anti-feedant effect, or growth inhibition)
Summary of the method: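 Cotton leaf discs on agar were sprayed with aqueous test solutions made from 10′000 ppm DMSO stocks, dried, then infested with five L1 larvae. Mortality, anti-feeding effect and growth inhibition were scored against untreated discs 3 days after infestation; control means any category exceeds untreated.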

[7] = test system: Chilo suppressalis (Striped Rice Stemborer); assay: Example B3: Chilo suppressalis (striped rice stemborer), artificial diet, L2 larvae; settings: 144 h, application rate of 200 ppm, 6 days after infestation, L2 larvae, read-out: control in at least one of the three categories (mortality, anti-feedant effect, or growth inhibition)
Summary of the method: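 Artificial diet treated with aqueous dilutions of DMSO stocks (10'000 ppm stock), dried, then infested with 6-8 L2 larvae per well. Mortality, anti-feeding and growth inhibition scored against untreated samples 6 days after infestation. Control counted when any category exceeds untreated.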

C[C@H](Nc1ncnc2c(C(F)(F)F)cc(C(F)(F)F)cc12)c1ncnn1-c1ncccn1 [P.1, N-[(1S)-1-(2-pyrimidin-2-yl-1,2,4-triazol-3-yl)ethyl]-6,8-bis(trifluoromethyl)quina-zolin-4-amine]
≥ 80%: mortality at 200 ppm [1] | percent control (mortality or growth inhibition) at 200 ppm [2] | percent control (mortality or growth inhibition) at 200 ppm [3] | percent control (mortality or growth inhibition) at 200 ppm [4] | mortality at 12 ppm [5] | percent control (mortality, anti-feedant effect or growth inhibition) at 200 ppm [6] | percent control (mortality, anti-feedant effect or growth inhibition) at 200 ppm [7]

CCN(c1ncnc2c(C(F)(F)F)cc(C(F)(F)F)cc12)C(C)c1ncnn1-c1ccc(C#N)cn1 (stereo not drawn) [P.6, 6-[5-[1-[[6,8-bis(trifluoromethyl)quina-zolin-4-yl]-ethyl-amino]ethyl]-1,2,4-triazol-1-yl]pyridine-3-carbonitrile]
≥ 80%: mortality at 200 ppm [1] | percent control (mortality or growth inhibition) at 200 ppm [2] | percent control (mortality or growth inhibition) at 200 ppm [3] | percent control (mortality or growth inhibition) at 200 ppm [4] | mortality at 12 ppm [5] | percent control (mortality, anti-feedant effect or growth inhibition) at 200 ppm [6] | percent control (mortality, anti-feedant effect or growth inhibition) at 200 ppm [7]

C[C@@H](c1ncnn1-c1ccc(C#N)cn1)N(C)c1ncnc2c(C(F)(F)F)cc(Cl)cc12 [P.21, 6-[5-[(1S)-1-[[6-chloro-8-(trifluoromethyl)quinazolin-4-yl]-methyl-amino]ethyl]-1,2,4-triazol-1-yl]pyridine-3-carbonitrile]
≥ 80%: mortality at 200 ppm [1] | percent control (mortality or growth inhibition) at 200 ppm [2] | percent control (mortality or growth inhibition) at 200 ppm [3] | percent control (mortality or growth inhibition) at 200 ppm [4] | mortality at 12 ppm [5] | percent control (mortality, anti-feedant effect or growth inhibition) at 200 ppm [6] | percent control (mortality, anti-feedant effect or growth inhibition) at 200 ppm [7]

C[C@@H](c1ncnn1-c1ncccn1)N(C)c1ncnc2c(C(F)(F)F)cc(Cl)cc12 [P.23, 6-chloro-N-methyl-N-[(1S)-1-(2-pyrimidin-2-yl-1,2,4-triazol-3-yl)ethyl]-8-(trifluoromethyl)quinazolin-4-amine]
≥ 80%: mortality at 200 ppm [1] | percent control (mortality or growth inhibition) at 200 ppm [2] | percent control (mortality or growth inhibition) at 200 ppm [3] | percent control (mortality or growth inhibition) at 200 ppm [4] | mortality at 12 ppm [5] | percent control (mortality, anti-feedant effect or growth inhibition) at 200 ppm [6] | percent control (mortality, anti-feedant effect or growth inhibition) at 200 ppm [7]

C[C@@H](c1ncnn1-c1ncccn1)N(C)c1ncnc2c(C(F)(F)F)cc(C(F)(F)F)cc12 [P.26, N-methyl-N-[(1S)-1-(2-pyrimidin-2-yl-1,2,4-triazol-3-yl)ethyl]-6,8-bis(trifluoromethyl)quina-zolin-4-amine]
≥ 80%: mortality at 200 ppm [1] | percent control (mortality or growth inhibition) at 200 ppm [2] | percent control (mortality or growth inhibition) at 200 ppm [3] | percent control (mortality or growth inhibition) at 200 ppm [4] | mortality at 12 ppm [5] | percent control (mortality, anti-feedant effect or growth inhibition) at 200 ppm [6] | percent control (mortality, anti-feedant effect or growth inhibition) at 200 ppm [7]

CC(c1ncnn1-c1ncccn1)N(C)c1ncnc2c(C(F)(F)F)cc(C(F)(F)F)cc12 (stereo not drawn) [P.27, N-methyl-N-[1-(2-pyrimidin-2-yl-1,2,4-triazol-3-yl)ethyl]-6,8-bis(trifluoromethyl)quinazolin-4-amine]
≥ 80%: mortality at 200 ppm [1] | percent control (mortality or growth inhibition) at 200 ppm [2] | percent control (mortality or growth inhibition) at 200 ppm [3] | percent control (mortality or growth inhibition) at 200 ppm [4] | mortality at 12 ppm [5] | percent control (mortality, anti-feedant effect or growth inhibition) at 200 ppm [6] | percent control (mortality, anti-feedant effect or growth inhibition) at 200 ppm [7]

CC(c1ncnn1-c1ccc(C#N)cn1)N(C)c1ncnc2c(C(F)(F)F)cc(C(F)(F)F)cc12 (stereo not drawn) [P.28, 6-[5-[1-[[6,8-bis(trifluoromethyl)quina-zolin-4-yl]-methyl-amino]ethyl]-1,2,4-triazol-1-yl]pyridine-3-carbonitrile]
≥ 80%: mortality at 200 ppm [1] | percent control (mortality or growth inhibition) at 200 ppm [2] | percent control (mortality or growth inhibition) at 200 ppm [3] | percent control (mortality or growth inhibition) at 200 ppm [4] | mortality at 12 ppm [5] | percent control (mortality, anti-feedant effect or growth inhibition) at 200 ppm [6] | percent control (mortality, anti-feedant effect or growth inhibition) at 200 ppm [7]

C[C@@H](c1ncnn1-c1ccc(C#N)cn1)N(C)c1ncnc2c(C(F)(F)F)cc(C(F)(F)F)cc12 [P.54, 6-[5-[(1S)-1-[[6,8-bis(trifluoromethyl)quina-zolin-4-yl]-methyl-amino]ethyl]-1,2,4-triazol-1-yl]pyridine-3-carbonitrile]
≥ 80%: mortality at 200 ppm [1] | percent control (mortality or growth inhibition) at 200 ppm [2] | percent control (mortality or growth inhibition) at 200 ppm [3] | percent control (mortality or growth inhibition) at 200 ppm [4] | mortality at 12 ppm [5] | percent control (mortality, anti-feedant effect or growth inhibition) at 200 ppm [6] | percent control (mortality, anti-feedant effect or growth inhibition) at 200 ppm [7]

CCN(c1ncnc2c(C(F)(F)F)cc(Cl)cc12)[C@@H](C)c1ncnn1-c1ccc(C#N)cn1 [P.128, 6-[5-[(1S)-1-[[6-chloro-8-(trifluoromethyl)quinazolin-4-yl]-ethyl-amino]ethyl]-1,2,4-triazol-1-yl]pyridine-3-carbonitrile]
≥ 80%: mortality at 200 ppm [1] | percent control (mortality or growth inhibition) at 200 ppm [2] | percent control (mortality or growth inhibition) at 200 ppm [3] | percent control (mortality or growth inhibition) at 200 ppm [4] | mortality at 12 ppm [5] | percent control (mortality, anti-feedant effect or growth inhibition) at 200 ppm [6] | percent control (mortality, anti-feedant effect or growth inhibition) at 200 ppm [7]

CCN(c1ncnc2c(C(F)(F)F)cc(C(F)(F)F)cc12)[C@@H](C)c1ncnn1-c1ccc(C#N)cn1 [P.168, 6-[5-[(1S)-1-[[6,8-bis(trifluoromethyl)quina-zolin-4-yl]-ethyl-amino]ethyl]-1,2,4-triazol-1-yl]pyridine-3-carbonitrile]
≥ 80%: mortality at 200 ppm [1] | percent control (mortality or growth inhibition) at 200 ppm [2] | percent control (mortality or growth inhibition) at 200 ppm [3] | percent control (mortality or growth inhibition) at 200 ppm [4] | mortality at 12 ppm [5] | percent control (mortality, anti-feedant effect or growth inhibition) at 200 ppm [6] | percent control (mortality, anti-feedant effect or growth inhibition) at 200 ppm [7]

CC(c1ncnn1-c1ncccn1)N(C)c1ncnc2c(Br)cc(Cl)cc12 (stereo not drawn) [P.172, 8-bromo-6-chloro-N-methyl-N-[1-(2-pyrimidin-2-yl-1,2,4-triazol-3-yl)ethyl]quinazolin-4-amine]
≥ 80%: mortality at 200 ppm [1] | percent control (mortality or growth inhibition) at 200 ppm [2] | percent control (mortality or growth inhibition) at 200 ppm [3] | percent control (mortality or growth inhibition) at 200 ppm [4] | mortality at 12 ppm [5] | percent control (mortality, anti-feedant effect or growth inhibition) at 200 ppm [6] | percent control (mortality, anti-feedant effect or growth inhibition) at 200 ppm [7]

C[C@@H](c1ncnn1-c1ccc(C(N)=S)cn1)N(C)c1ncnc2c(C(F)(F)F)cc(Cl)cc12 [P.191, 6-[5-[(1S)-1-[[6-chloro-8-(trifluoromethyl)quinazolin-4-yl]-methyl-amino]ethyl]-1,2,4-triazol-1-yl]pyridine-3-carbothioamide]
≥ 80%: mortality at 200 ppm [1] | percent control (mortality or growth inhibition) at 200 ppm [2] | percent control (mortality or growth inhibition) at 200 ppm [3] | percent control (mortality or growth inhibition) at 200 ppm [4] | mortality at 12 ppm [5] | percent control (mortality, anti-feedant effect or growth inhibition) at 200 ppm [7]

C[C@@H](c1ncnn1-c1ncccn1)N(C)c1ncnc2c(C(F)(F)C3CC3)cc(C(F)(F)F)cc12 [P.201, 8-[cyclopropyl(difluoro)meth-yl]-N-methyl-N-[(1S)-1-(2-pyrimidin-2-yl-1,2,4-triazol-3-yl)ethyl]-6-(trifluoromethyl)quinazolin-4-amine]
≥ 80%: mortality at 200 ppm [1] | percent control (mortality or growth inhibition) at 200 ppm [2] | percent control (mortality or growth inhibition) at 200 ppm [3] | percent control (mortality or growth inhibition) at 200 ppm [4] | mortality at 12 ppm [5] | percent control (mortality, anti-feedant effect or growth inhibition) at 200 ppm [6] | percent control (mortality, anti-feedant effect or growth inhibition) at 200 ppm [7]
